Measured values published in PubChem BioAssay (NCI).
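Briefly, cells in 96-well plates were exposed to five compound concentrations for 48 h, and endpoints were estimated by linear interpolation. TGI is the concentration that stops growth completely.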

Key:
Experiment in all cases: growth of human tumour cells (NCI), 48 h
SK-MEL-5 melanoma = tested on: SK-MEL-5 melanoma
OVCAR-3 ovarian = tested on: OVCAR-3 ovarian
UACC-257 melanoma = tested on: UACC-257 melanoma
ACHN renal = tested on: ACHN renal
NCI-H23 lung = tested on: NCI-H23 lung
NCI-H522 lung = tested on: NCI-H522 lung
HCT-15 colon = tested on: HCT-15 colon
A549 NSCLC = tested on: A549 NSCLC
SN12C renal = tested on: SN12C renal
K-562 leukemia = tested on: K-562 leukemia
OVCAR-4 ovarian = tested on: OVCAR-4 ovarian
NCI/ADR-RES ovarian = tested on: NCI/ADR-RES ovarian
NCI-H460 lung = tested on: NCI-H460 lung
LOX IMVI melanoma = tested on: LOX IMVI melanoma
UACC-62 melanoma = tested on: UACC-62 melanoma
OVCAR-8 ovarian = tested on: OVCAR-8 ovarian
MOLT-4 leukemia = tested on: MOLT-4 leukemia
HCT-116 colon = tested on: HCT-116 colon
A498 renal = tested on: A498 renal
MDA-MB-231 breast = tested on: MDA-MB-231 breast
SF-295 CNS = tested on: SF-295 CNS
CCRF-CEM leukemia = tested on: CCRF-CEM leukemia
SF-539 CNS = tested on: SF-539 CNS
HOP-62 NSCLC = tested on: HOP-62 NSCLC
SK-MEL-2 melanoma = tested on: SK-MEL-2 melanoma
RXF 393 renal = tested on: RXF 393 renal
HCC-2998 colon = tested on: HCC-2998 colon
T-47D breast = tested on: T-47D breast
SK-MEL-28 melanoma = tested on: SK-MEL-28 melanoma
NCI-H226 lung = tested on: NCI-H226 lung
EKVX NSCLC = tested on: EKVX NSCLC
MDA-N = tested on: MDA-N
PC-3 prostate = tested on: PC-3 prostate
OVCAR-5 ovarian = tested on: OVCAR-5 ovarian
COLO 205 colon = tested on: COLO 205 colon
DU-145 prostate = tested on: DU-145 prostate
KM12 colon = tested on: KM12 colon
SNB-75 CNS = tested on: SNB-75 CNS
M14 melanoma = tested on: M14 melanoma
SR leukemia = tested on: SR leukemia
CAKI-1 renal = tested on: CAKI-1 renal
U251 CNS = tested on: U251 CNS
SK-OV-3 ovarian = tested on: SK-OV-3 ovarian
SW-620 colon = tested on: SW-620 colon
TK-10 renal = tested on: TK-10 renal
SNB-19 CNS = tested on: SNB-19 CNS
BT-549 breast = tested on: BT-549 breast
MCF7 breast = tested on: MCF7 breast
MDA-MB-435 = tested on: MDA-MB-435
SF-268 CNS = tested on: SF-268 CNS
MALME-3M melanoma = tested on: MALME-3M melanoma
RPMI-8226 leukemia = tested on: RPMI-8226 leukemia
786-0 renal = tested on: 786-0 renal
UO-31 renal = tested on: UO-31 renal

`CCCCCCCCNC(=S)/N=C/c1c(O)c2ccccc2oc1=O` showed a TGI (SK-MEL-5 melanoma) of 30.4 µM, a TGI (OVCAR-3 ovarian) of 29.1 µM and a TGI (UACC-257 melanoma) of 40.9 µM. It also gave a TGI (ACHN renal) of 29.5 µM, a TGI (NCI-H23 lung) of 39.7 µM and a TGI (NCI-H522 lung) of 22.4 µM. The TGI (HCT-15 colon) was 28.4 µM, the TGI (A549 NSCLC) was 35.2 µM and the TGI (SN12C renal) was 38.7 µM. The TGI (K-562 leukemia) was 40.1 µM, the TGI (OVCAR-4 ovarian) was 29.4 µM and the TGI (NCI/ADR-RES ovarian) was 47.4 µM. It also gave a TGI (NCI-H460 lung) of 30.3 µM, a TGI (LOX IMVI melanoma) of 26 µM and a TGI (UACC-62 melanoma) of 28.6 µM. The TGI (OVCAR-8 ovarian) was 52.4 µM, the TGI (MOLT-4 leukemia) was 33.7 µM and the TGI (HCT-116 colon) was 31 µM. It also gave a TGI (A498 renal) of 32.2 µM, a TGI (MDA-MB-231 breast) of 32.4 µM and a TGI (SF-295 CNS) of 34 µM. It also gave a TGI (CCRF-CEM leukemia) of 30.9 µM, a TGI (SF-539 CNS) of 36.6 µM and a TGI (HOP-62 NSCLC) of 32.2 µM. The TGI (SK-MEL-2 melanoma) was 48 µM, the TGI (RXF 393 renal) was 34.8 µM and the TGI (HCC-2998 colon) was 26.7 µM. The TGI (T-47D breast) was over 100 µM, the TGI (SK-MEL-28 melanoma) was 31.1 µM and the TGI (NCI-H226 lung) was 51.7 µM. For the same compound, the TGI (EKVX NSCLC) was 66.9 µM, the TGI (MDA-N) was 34.3 µM and the TGI (PC-3 prostate) was 28.5 µM. For the same compound, the TGI (OVCAR-5 ovarian) was 28.1 µM, the TGI (COLO 205 colon) was 32.3 µM and the TGI (DU-145 prostate) was 33.6 µM. The TGI (KM12 colon) was 29.1 µM, the TGI (SNB-75 CNS) was 34.2 µM and the TGI (M14 melanoma) was 34.6 µM.
For `COc1ccc2nc3ccc(OC)cc3c(SCC3CO3)c2c1` (stereo not given), the TGI (SK-MEL-5 melanoma) was 33.5 µM, the TGI (OVCAR-3 ovarian) was 28.5 µM and the TGI (SR leukemia) was 80.4 µM. For the same compound, the TGI (CAKI-1 renal) was 19.1 µM, the TGI (U251 CNS) was 27.1 µM and the TGI (UACC-257 melanoma) was 29.8 µM. It also gave a TGI (ACHN renal) of 21.7 µM, a TGI (NCI-H23 lung) of 35.4 µM and a TGI (SK-OV-3 ovarian) of over 100 µM. For the same compound, the TGI (SW-620 colon) was 24.4 µM, the TGI (NCI-H522 lung) was 33.2 µM and the TGI (HCT-15 colon) was 33.6 µM. For the same compound, the TGI (A549 NSCLC) was over 100 µM, the TGI (SN12C renal) was 27.4 µM and the TGI (K-562 leukemia) was 54.1 µM. For the same compound, the TGI (TK-10 renal) was 25.8 µM, the TGI (OVCAR-4 ovarian) was 38.1 µM and the TGI (NCI/ADR-RES ovarian) was 38.5 µM. The TGI (NCI-H460 lung) was 31 µM, the TGI (LOX IMVI melanoma) was 33.4 µM and the TGI (OVCAR-8 ovarian) was 25.7 µM. The TGI (HCT-116 colon) was 22.7 µM, the TGI (A498 renal) was over 100 µM and the TGI (MDA-MB-231 breast) was 28.7 µM. The TGI (SNB-19 CNS) was 80.4 µM, the TGI (SF-295 CNS) was over 100 µM and the TGI (CCRF-CEM leukemia) was over 100 µM. For the same compound, the TGI (SF-539 CNS) was 23.7 µM, the TGI (HOP-62 NSCLC) was over 100 µM and the TGI (SK-MEL-2 melanoma) was 28.4 µM. It also gave a TGI (BT-549 breast) of 30.4 µM, a TGI (RXF 393 renal) of 33.5 µM and a TGI (MCF7 breast) of 26.6 µM. For the same compound, the TGI (HCC-2998 colon) was 29.7 µM, the TGI (T-47D breast) was 43.6 µM and the TGI (MDA-MB-435) was 40 µM. The TGI (SF-268 CNS) was 31.6 µM, the TGI (SK-MEL-28 melanoma) was 33.5 µM and the TGI (NCI-H226 lung) was over 100 µM. For the same compound, the TGI (EKVX NSCLC) was 34.2 µM, the TGI (MALME-3M melanoma) was 30.5 µM and the TGI (MDA-N) was 30.6 µM. The TGI (PC-3 prostate) was 28.6 µM, the TGI (OVCAR-5 ovarian) was 69.3 µM and the TGI (COLO 205 colon) was 41.8 µM. It also gave a TGI (KM12 colon) of 34.4 µM, a TGI (RPMI-8226 leukemia) of 74.6 µM and a TGI (786-0 renal) of 23.7 µM. The TGI (SNB-75 CNS) was over 100 µM, the TGI (M14 melanoma) was 29 µM and the TGI (UO-31 renal) was 24.8 µM.
